Experiments:
[1] = biological target: T1, Aldehyde dehydrogenase 1A1 (Homo sapiens) (UniProt P00352); assay: Inhibition of N-terminal Met/His6-tagged recombinant human ALDH1A1 (Ser2-Ser501 residues) expressed in Escherichia coli cells at 10 uM using propionaldehyde as substrate preincubated for 15 mins followed by substrate addition by spectrophotometric method relative to control
T1 sequence (whole entry): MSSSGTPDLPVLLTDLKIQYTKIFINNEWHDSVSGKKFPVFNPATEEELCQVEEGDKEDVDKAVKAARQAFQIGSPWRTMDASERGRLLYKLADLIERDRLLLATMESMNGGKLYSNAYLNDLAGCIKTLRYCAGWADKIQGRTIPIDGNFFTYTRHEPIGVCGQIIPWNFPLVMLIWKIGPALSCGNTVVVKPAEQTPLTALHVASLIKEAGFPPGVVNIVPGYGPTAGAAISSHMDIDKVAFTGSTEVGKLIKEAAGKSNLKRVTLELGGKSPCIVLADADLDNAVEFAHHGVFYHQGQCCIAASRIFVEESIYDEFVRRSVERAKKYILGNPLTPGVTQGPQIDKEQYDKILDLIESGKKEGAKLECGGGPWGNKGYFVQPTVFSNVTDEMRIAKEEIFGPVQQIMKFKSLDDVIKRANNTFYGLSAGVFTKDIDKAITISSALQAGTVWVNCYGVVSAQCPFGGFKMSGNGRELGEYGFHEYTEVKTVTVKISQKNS

[2] = biological target: T2, Aldehyde dehydrogenase 1A1 (Homo sapiens, UniProt P00352); assay: Inhibition of N-terminal Met/His6-tagged recombinant human ALDH1A1 (Ser2-Ser501 residues) expressed in Escherichia coli cells using propionaldehyde as substrate preincubated for 15 mins followed by substrate addition by spectrophotometric method
T2 sequence (P00352 whole entry): T1 sequence (whole entry)

[3] = biological target: T3, Retinal dehydrogenase 2 (Homo sapiens) (UniProt O94788); assay: Inhibition of recombinant N-terminal His6-tagged human ALDH1A2 (Met1 to Ser518 residues) expressed in Escherichia coli at 10 uM using propionaldehyde as substrate preincubated for 15 mins followed by substrate addition by spectrophotometric method relative to control
T3 sequence (whole entry): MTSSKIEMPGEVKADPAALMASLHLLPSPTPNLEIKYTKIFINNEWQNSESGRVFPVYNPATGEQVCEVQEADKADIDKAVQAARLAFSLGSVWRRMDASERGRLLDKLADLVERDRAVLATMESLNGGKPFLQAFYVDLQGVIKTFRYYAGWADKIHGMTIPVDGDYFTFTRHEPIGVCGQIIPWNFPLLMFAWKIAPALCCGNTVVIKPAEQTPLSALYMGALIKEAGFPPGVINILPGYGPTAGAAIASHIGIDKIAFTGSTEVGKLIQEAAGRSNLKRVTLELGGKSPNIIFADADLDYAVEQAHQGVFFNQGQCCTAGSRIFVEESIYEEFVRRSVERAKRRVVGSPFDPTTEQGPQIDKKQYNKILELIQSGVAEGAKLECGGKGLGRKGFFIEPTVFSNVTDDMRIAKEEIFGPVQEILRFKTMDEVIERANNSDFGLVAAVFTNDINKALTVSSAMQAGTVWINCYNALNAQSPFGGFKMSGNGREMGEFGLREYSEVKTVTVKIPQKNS

[4] = biological target: T4, Retinaldehyde dehydrogenase 3 (Homo sapiens) (UniProt P47895); assay: Inhibition of recombinant N-terminal His6-tagged human ALDH1A3 (Met1 to Pro512 reisudes) expressed in Escherichia coli at 10 uM using propionaldehyde as substrate preincubated for 15 mins followed by substrate addition by spectrophotometric method relative to control
T4 sequence (whole entry): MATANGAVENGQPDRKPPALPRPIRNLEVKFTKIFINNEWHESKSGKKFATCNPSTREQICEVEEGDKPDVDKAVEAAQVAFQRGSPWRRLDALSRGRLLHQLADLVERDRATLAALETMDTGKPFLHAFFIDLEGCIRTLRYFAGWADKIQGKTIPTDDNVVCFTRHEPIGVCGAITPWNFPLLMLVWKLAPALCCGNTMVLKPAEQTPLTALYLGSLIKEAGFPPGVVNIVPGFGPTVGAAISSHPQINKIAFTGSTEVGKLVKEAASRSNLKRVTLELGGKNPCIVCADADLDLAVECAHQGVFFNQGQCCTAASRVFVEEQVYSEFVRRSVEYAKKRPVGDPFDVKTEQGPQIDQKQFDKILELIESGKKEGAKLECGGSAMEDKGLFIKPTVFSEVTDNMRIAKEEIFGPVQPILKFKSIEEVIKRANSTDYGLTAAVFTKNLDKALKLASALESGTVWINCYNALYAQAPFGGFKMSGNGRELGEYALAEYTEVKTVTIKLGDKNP

[5] = biological target: T5, Aldehyde dehydrogenase, mitochondrial (Homo sapiens) (UniProt P05091); assay: Inhibition of recombinant human ALDH2 at 10 uM using propionaldehyde as substrate preincubated for 15 mins followed by substrate addition by spectrophotometric method relative to control
T5 sequence (whole entry): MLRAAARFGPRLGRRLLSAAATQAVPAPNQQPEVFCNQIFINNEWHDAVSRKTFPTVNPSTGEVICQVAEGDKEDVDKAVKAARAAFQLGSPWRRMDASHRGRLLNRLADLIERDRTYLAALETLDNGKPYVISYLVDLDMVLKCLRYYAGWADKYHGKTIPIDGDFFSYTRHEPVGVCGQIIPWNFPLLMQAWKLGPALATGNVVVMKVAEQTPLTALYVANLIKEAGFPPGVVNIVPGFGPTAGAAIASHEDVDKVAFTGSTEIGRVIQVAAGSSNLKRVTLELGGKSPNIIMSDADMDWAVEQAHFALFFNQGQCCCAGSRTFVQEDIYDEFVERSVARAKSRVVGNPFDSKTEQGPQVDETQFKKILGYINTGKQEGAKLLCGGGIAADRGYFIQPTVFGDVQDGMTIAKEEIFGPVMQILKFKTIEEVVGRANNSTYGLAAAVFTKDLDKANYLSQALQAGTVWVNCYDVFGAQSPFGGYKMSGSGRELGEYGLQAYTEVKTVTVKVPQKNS

[6] = biological target: T6, Aldehyde dehydrogenase, dimeric NADP-preferring (Homo sapiens) (UniProt P30838); assay: Inhibition of recombinant C-terminal His6-tagged human ALDH3A1 (Met1 to His453 residues) expressed in mammalian expression system at 10 uM using benzaldehyde as substrate preincubated for 15 mins followed by substrate addition by spectrophotometric method relative to control
T6 sequence (whole entry): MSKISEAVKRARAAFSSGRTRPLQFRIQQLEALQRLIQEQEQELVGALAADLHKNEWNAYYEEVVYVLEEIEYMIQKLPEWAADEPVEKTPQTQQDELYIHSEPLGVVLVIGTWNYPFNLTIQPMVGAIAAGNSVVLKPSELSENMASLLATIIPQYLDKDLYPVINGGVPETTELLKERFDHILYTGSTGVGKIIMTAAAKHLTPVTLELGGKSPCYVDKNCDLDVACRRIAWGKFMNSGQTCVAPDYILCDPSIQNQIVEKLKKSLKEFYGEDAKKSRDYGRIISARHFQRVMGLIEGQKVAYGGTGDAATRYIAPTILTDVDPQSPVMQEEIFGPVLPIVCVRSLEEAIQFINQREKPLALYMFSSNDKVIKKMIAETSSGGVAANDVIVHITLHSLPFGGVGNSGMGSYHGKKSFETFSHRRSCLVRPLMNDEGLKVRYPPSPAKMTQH

[7] = Half life in human liver microsomes at 2 ug/ml preincubated for 5 mins followed by NADPH addition and measured up to 45 mins by LC-MS/MS analysis; assay type: ADME, Microsome

Row | SMILES | inhibition [1] | other results
1 | CCCCN(C(=O)CCN1CCN(C(=O)c2ccco2)CC1)c1ccc2c(C)cc(=O)oc2c1 | 26.5% | 
2 | Cc1cc(=O)oc2cc(N(CC3CCCCC3)C(=O)CCN3CCN(C(=O)c4ccco4)CC3)ccc12 | 26.2% | 
3 | Cc1cccc(CN(C(=O)CCN2CCN(C(=O)c3ccco3)CC2)c2ccc3c(C)cc(=O)oc3c2)c1 | 9.77% | 
4 | Cc1cc(=O)oc2cc(N(CC3CCCC3)C(=O)CCN3CCN(C(=O)c4ccco4)CC3)ccc12 | 17.4% | 
5 | CC(C)=CCN(C(=O)CN1CCN(C(=O)c2ccco2)CC1)c1ccc2c(C)cc(=O)oc2c1 | 33.6% | 
6 | Cc1ccccc1CN(C(=O)CCN1CCN(C(=O)c2ccco2)CC1)c1ccc2c(C)cc(=O)oc2c1 | 13.2% | 

Now from value to molecule, other results behind:

Row | inhibition [1] | SMILES | other results
7 | 26.6% | CC(C)=CCN(C(=O)CCN1CCN(C(=O)c2cccnc2)CC1)c1ccc2c(C)cc(=O)oc2c1 | 
8 | 49.7% | CC(C)=CCN(C(=O)CCN1CCN(C(=O)c2ccc(C)cc2)CC1)c1ccc2c(C)cc(=O)oc2c1 | 
9 | 65.2% | COc1ccc(C(=O)N2CCN(CCC(=O)N(CC=C(C)C)c3ccc4c(C)cc(=O)oc4c3)CC2)cc1 | IC50 [2]: 5.86 µM; inhibition [3]: 1.98%; inhibition [4]: 1.04%; inhibition [5]: 0.62%; inhibition [6]: 0.82%
10 | 33.7% | CC(C)=CCN(C(=O)CCN1CCN(C(=O)c2ccc(C(F)(F)F)cc2)CC1)c1ccc2c(C)cc(=O)oc2c1 | 
11 | 25.1% | CC(C)=CCN(C(=O)CCN1CCN(C(=O)c2ccc(F)cc2)CC1)c1ccc2c(C)cc(=O)oc2c1 | 
12 | 76.5% | CC(C)=CCN(C(=O)CCN1CCN(C(=O)c2ccco2)CC1)c1ccc2c(C)cc(=O)oc2c1 | IC50 [2]: 1.96 µM; inhibition [3]: 1.95%; inhibition [4]: 1.34%; inhibition [5]: 1.87%; inhibition [6]: 0.78%; half-life at 2 ug/ml [7]: 7 min
13 | 55.4% | CC(C)=CCN(C(=O)CCN1CCN(C(=O)c2cccc([N+](=O)[O-])c2)CC1)c1ccc2c(C)cc(=O)oc2c1 | IC50 [2]: 29.3 µM
14 | 51.8% | CC(C)=CCN(C(=O)CCN1CCN(C(=O)c2ccccc2F)CC1)c1ccc2c(C)cc(=O)oc2c1 | 
